In assay [1] the target is T1, PK2 EFE (Pseudomonas savastanoi, UniProt P32021). Kind of assay: succinate production by LC-MS/MS versus 2OG concentration. Format: biochemical. More on the design: recombinant from E. coli, His6 tag removed with TEV protease, apoprotein after EDTA/DTT treatment. As to conditions: no L-Arg (uncoupled decarboxylation), 0.2 mM Fe(II), 0.4 mM L-ascorbate, 25 mM HEPES pH 7.5, 22 °C.

Assay [2] concerns the target T1, PK2 EFE. The settings on record: 1 mM 2OG, 1 mM L-Arg, 0.4 mM Fe(II), 1 mM L-ascorbate, 25 mM HEPES pH 7.5, room temperature.

From publication PMC12060275, “Biochemical, Structural, and Conformational Characterization of a Fungal Ethylene-Forming Enzyme” (Biochemistry, 2025) come the findings set out here.

T1 sequence (P32021 whole entry): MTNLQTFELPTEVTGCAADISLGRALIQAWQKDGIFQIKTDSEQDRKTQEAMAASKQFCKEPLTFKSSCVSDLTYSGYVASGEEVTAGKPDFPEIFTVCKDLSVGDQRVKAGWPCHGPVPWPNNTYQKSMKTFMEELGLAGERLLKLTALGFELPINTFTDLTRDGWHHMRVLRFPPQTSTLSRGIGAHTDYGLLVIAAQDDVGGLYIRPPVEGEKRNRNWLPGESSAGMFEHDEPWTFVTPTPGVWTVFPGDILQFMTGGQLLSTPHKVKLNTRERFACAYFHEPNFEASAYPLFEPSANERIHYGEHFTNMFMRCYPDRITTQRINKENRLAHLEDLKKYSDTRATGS

`O=C(O)CCC(=O)C(=O)O` [2OG]: at PK2 EFE [1], the “succinate production by LC-MS/MS versus 2OG concentration” value is “such an uncoupled reaction occurs in both Pd1 and PK2 versions of EFE”.
Consider `N=C(N)NCCC[C@H](N)C(=O)O` [L-Arg], for which the “ethylene by GC and P5C by 2-aminobenzaldehyde assay (partition ratio)” value on PK2 EFE [2] is “we compared the ethylene/P5C partition ratios for PK2 EFE and Pd1 EFE”.
